Experimental findings from patent US20230085307A1, “PYRIDAZINONE COMPOUND AND HERBICIDE” (NISSAN CHEMICAL CORPORATION, priority 2019, published 2023) are described below.

Experiment [1] relates to Chinese sprangletop. The experiment can be described thus: Test Example 3: herbicidal effect by foliage application, Wagner pot (Table 18, symbol D). It is filed as in vivo, chinese sprangletop (Leptochloa chinensis). The conditions noted are these: amount of applied herbicide 320 g/ha. The gist of the method: (§1)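 Plants were sown in alluvial soil held under 0.1–0.5 cm standing water and grown 14 days in a greenhouse at 25–30 °C. An emulsifiable formulation, water-diluted to the set dose, was then sprayed onto the foliage, and effects were scored three weeks later using previously defined criteria.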

For experiment [2], the system named is blackgrass. The experiment can be described thus: Test Example 5: herbicidal effect by foliage application, plastic box (Table 20, symbol J). It counts as in vivo, blackgrass (Alopecurus myosuroides). Conditions: foliage application, 320 g/ha, evaluated three weeks after application. In outline:
(§2)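 Plants sown in sterilized diluvial soil and grown 14 days in a greenhouse at 25° C to 30° C, then sprayed on the foliage with the compound's emulsion diluted in water to a predetermined herbicide amount. Injury to weeds and crops scored three weeks after application on a visual rating scale.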

Experiment [3] concerns rice flat sedge. The experiment can be described thus: Test Example 3: herbicidal effect by foliage application, Wagner pot (Table 18, symbol E). It is filed as in vivo, rice flat sedge (Cyperus iria). The conditions noted are these: amount of applied herbicide 320 g/ha. The gist of the method:
as §1

The test system of experiment [4] is lambsquarters. Description: Test Example 5: herbicidal effect by foliage application, plastic box (Table 20, symbol O). The conditions noted are these: foliage application, 320 g/ha, evaluated three weeks after application. It is filed as in vivo, lambsquarters (Chenopodium album). In outline:
as §2

The subject of experiment [5] is persian speedwell. Description: Test Example 5: herbicidal effect by foliage application, plastic box (Table 20, symbol R). It is filed as in vivo, Persian speedwell (Veronica persica). Conditions: foliage application, 320 g/ha, evaluated three weeks after application. In outline: as §2
The test system of experiment [6] is Italian ryegrass. Description: Test Example 5: herbicidal effect by foliage application, plastic box (Table 20, symbol K). It is filed as in vivo, Italian ryegrass (Lolium multiflorum). The conditions noted are these: foliage application, 320 g/ha, evaluated three weeks after application. In outline:
as §2

For experiment [7], the system named is Japanese bulrush. Description: Test Example 2: herbicidal activity, application during weed generation under submerged conditions (Table 17, symbol B). It is filed as in vivo, Japanese bulrush (Schoenoplectus juncoides). Conditions: AAH 320 g/ha; application during weed generation, submerged conditions. The gist of the method: (§3)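 In this pot test, flooded alluvial soil (water depth 4 cm) holds all three species sown as a mixture. Once seedlings have one to two leaves, the compound's emulsion, thinned with water to the intended dose, is poured on the water; grading follows after three weeks on the earlier criteria.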

The test system of experiment [8] is windgrass. The experiment can be described thus: Test Example 5: herbicidal effect by foliage application, plastic box (Table 20, symbol L). It is filed as in vivo, windgrass (Apera spica-venti). Conditions: foliage application, 320 g/ha, evaluated three weeks after application. In outline:
as §2

Experiment [9] relates to green foxtail. The experiment can be described thus: Test Example 5: herbicidal effect by foliage application, plastic box (Table 20, symbol G). It counts as in vivo, green foxtail (Setaria viridis). The conditions noted are these: foliage application, 320 g/ha, evaluated three weeks after application. The gist of the method: as §2
The subject of experiment [10] is late watergrass. The experiment can be described thus: Test Example 2: herbicidal activity, application during weed generation under submerged conditions (Table 17, symbol A). The conditions noted are these: AAH 320 g/ha; application during weed generation, submerged conditions. It is filed as in vivo, late watergrass (Echinochloa oryzicola). The gist of the method: as §3

Experiment [11] concerns barnyard grass. Description: Test Example 5: herbicidal effect by foliage application, plastic box (Table 20, symbol H). It is filed as in vivo, barnyard grass (Echinochloa crus-galli). The conditions noted are these: foliage application, 320 g/ha, evaluated three weeks after application. The gist of the method: as §2
Experiment [12] relates to oval-leafed pondweed. Description: Test Example 2: herbicidal activity, application during weed generation under submerged conditions (Table 17, symbol C). Conditions: AAH 320 g/ha; application during weed generation, submerged conditions. It is filed as in vivo, oval-leafed pondweed (Monochoria vaginalis). The gist of the method:
as §3

Experiment [13] deals with redroot pigweed. The experiment can be described thus: Test Example 5: herbicidal effect by foliage application, plastic box (Table 20, symbol N). It counts as in vivo, redroot pigweed (Amaranthus retroflexus). The conditions noted are these: foliage application, 320 g/ha, evaluated three weeks after application. In outline: as §2
The subject of experiment [14] is velvetleaf. The experiment can be described thus: Test Example 5: herbicidal effect by foliage application, plastic box (Table 20, symbol M). It counts as in vivo, velvetleaf (Abutilon theophrasti). The conditions noted are these: foliage application, 320 g/ha, evaluated three weeks after application. In outline: as §2
Experiment [15] relates to barnyard grass. The experiment can be described thus: Test Example 3: herbicidal effect by foliage application, Wagner pot (Table 18, symbol H). It is filed as in vivo, barnyard grass (Echinochloa crus-galli). Conditions: amount of applied herbicide 320 g/ha. The gist of the method: as §1
The subject of experiment [16] is southern crabgrass. The experiment can be described thus: Test Example 5: herbicidal effect by foliage application, plastic box (Table 20, symbol F). The conditions noted are these: foliage application, 320 g/ha, evaluated three weeks after application. It is filed as in vivo, southern crabgrass (Digitaria ciliaris). The gist of the method:
as §2

The subject of experiment [17] is oval-leafed pondweed. Description: Test Example 1: herbicidal activity, application before weed generation under submerged conditions (Table 16, symbol C). It counts as in vivo, oval-leafed pondweed (Monochoria vaginalis). Conditions: 320 g/ha applied herbicide. The gist of the method:
(§4)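 Alluvial soil was flooded to 4 cm depth, weed seeds were sown mixed and 2.5-leaf rice seedlings were transplanted. On sowing day, the compound's emulsion, diluted in water to a set dose, was applied to the water surface. Plants grew at 25–30 °C and were scored 0–5 after three weeks.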

Experiment [18] has as its system wild oat. Description: Test Example 5: herbicidal effect by foliage application, plastic box (Table 20, symbol I). It counts as in vivo, wild oat (Avena fatua). Conditions: foliage application, 320 g/ha, evaluated three weeks after application. In outline: as §2
In experiment [19] the test system is chickweed. The experiment can be described thus: Test Example 5: herbicidal effect by foliage application, plastic box (Table 20, symbol P). It counts as in vivo, common chickweed (Stellaria media). The conditions noted are these: foliage application, 320 g/ha, evaluated three weeks after application. The gist of the method: as §2
The subject of experiment [20] is late watergrass. The experiment can be described thus: Test Example 1: herbicidal activity, application before weed generation under submerged conditions (Table 16, symbol A). It counts as in vivo, late watergrass (Echinochloa oryzicola). Conditions: 320 g/ha applied herbicide. The gist of the method:
as §4

Experiment [21] relates to Japanese bulrush. The experiment can be described thus: Test Example 1: herbicidal activity, application before weed generation under submerged conditions (Table 16, symbol B). The conditions noted are these: 320 g/ha applied herbicide. It counts as in vivo, Japanese bulrush (Schoenoplectus juncoides). In outline:
as §4

Turning to `Cc1nn(C)c(=O)c(-c2c(-c3ccc(C(=O)O)cc3)sc3ccc(Cl)cc23)c1O` [2-113], in experiment [1], the “herbicidal effect on D: Chinese sprangletop” value is 1 (Herbicidal rate of 5% or more and less than 20%). Moreover, the “herbicidal effect on J: blackgrass” value in experiment [2] was 0 (Herbicidal rate of 5% or less (almost no effect)). Besides, the “herbicidal effect on E: rice flat sedge” value in [3] is recorded as 0 (Herbicidal rate of 5% or less (almost no effect)). Moreover, the “herbicidal effect on O: lambsquarters” value in experiment [4] is given as 0 (Herbicidal rate of 5% or less (almost no effect)). Further, the “herbicidal effect on R: persian speedwell” value in [5] is 0 (Herbicidal rate of 5% or less (almost no effect)). In experiment [6], the “herbicidal effect on K: Italian ryegrass” value was 0 (Herbicidal rate of 5% or less (almost no effect)). Also, the “herbicidal effect rating, B: Japanese bulrush” value in [7] was 0 (Herbicidal rate of 5% or less (almost no effect)). The “herbicidal effect on L: windgrass” value in [8] is reported as 0 (Herbicidal rate of 5% or less (almost no effect)). The “herbicidal effect on G: green foxtail” value in experiment [9] is recorded as 0 (Herbicidal rate of 5% or less (almost no effect)). Further, the “herbicidal effect rating, A: late watergrass” value in experiment [10] is 2 (Herbicidal rate of 20% or more and less than 40%). Besides, the “herbicidal effect on H: barnyard grass” value in experiment [11] is 0 (Herbicidal rate of 5% or less (almost no effect)); in experiment [15], 3 (Herbicidal rate of 40% or more and less than 70%). Besides, the “herbicidal effect rating, C: oval-leafed pondweed” value in experiment [12] was 0 (Herbicidal rate of 5% or less (almost no effect)). Moreover, the “herbicidal effect on N: redroot pigweed” value in [13] was 0 (Herbicidal rate of 5% or less (almost no effect)). Further, in experiment [14], the “herbicidal effect on M: velvetleaf” value was 0 (Herbicidal rate of 5% or less (almost no effect)). Besides, the “herbicidal effect on F: southern crabgrass” value in experiment [16] is given as 0 (Herbicidal rate of 5% or less (almost no effect)). Further, the “Herbicidal effect on C: oval-leafed pondweed (grade 0-5)” value in [17] is recorded as 0 (Herbicidal rate of 5% or less (almost no effect)). Further, the “herbicidal effect on I: wild oat” value in experiment [18] is reported as 0 (Herbicidal rate of 5% or less (almost no effect)). For the same compound, the “herbicidal effect on P: chickweed” value in [19] is recorded as 0 (Herbicidal rate of 5% or less (almost no effect)). Besides, the “Herbicidal effect on A: late watergrass (grade 0-5)” value in [20] was 3 (Herbicidal rate of 40% or more and less than 70%). Also, in experiment [21], the “Herbicidal effect on B: Japanese bulrush (grade 0-5)” value is 0 (Herbicidal rate of 5% or less (almost no effect)).
